How the values were obtained:
Assay type in all cases: cell-based
T cells [1] = assay: Rate of introduction of the CAR gene into T cells by flow cytometry (CAR-T production); conditions: for CAR-positive rate: 0.0037%, 0.011%
Experimental: (§1) CAR-T cell culture medium: 2.6% OpTmizer Expansion Basal Supplement (Thermo Fisher Scientific), 1% L-Glutamine (Thermo Fisher Scientific), and 1% Streptomycine, 2% CTS Immune Cell SR (Thermo Fisher Scientific) were added to OpTmizer CTS T-Cell Expansion basal medium (Thermo Fisher Scientific) to prepare a basal cell culture medium. To this was added 20 IU/mL or 40 IU/mL of MACS GMP IL-2 (Miltenyi Biotec). Dimethyl Sulfoxide (DMSO) (Wako Pure Chemical Industries, Ltd) was added to the respective media to obtain the designated levels and used. After Leukopak (Hemacare) was thawed, the cells were diluted in CAR-T cell culture medium to less than or equal to 2.0×10^6 cells/mL (pre-production raw material). Cell suspension: MACS GMP T-Cell TransACT (Miltenyi Biotec)=17.5:1 were seeded in culture bags and cultured in about 48 hours (cell activation step). The activated cells were diluted in culture medium using a LOVO Cell processing system (Fresenius Kabi) or a centrifuge, seeded under 6.07×10^5 cells/cm^2 in culture bags that had been previously coated with Retronectin® (Takara Bio Co., Ltd.) and a retrovirus into which a CAR gene or a CAR gene, a IL-7 gene, and a CCL19 gene had been introduced, and cultured until the next day (gene transfer process). Culture bottles (G-REX, Wilson Wolf) were seeded under 2.2×10^6 cells/cm^2 and cultured for 3-7 days to produce CAR-T cells (final products). The CAR gene used has the base sequence encoding the amino acid sequence shown in SEQ ID NO: 1, IL-7 gene used has the base sequence encoding the amino acid sequence shown in SEQ ID NO: 2, and CCL19 gene used has the base sequence encoding the amino acid sequence shown in SEQ ID NO: 3 (the same applies to the following SK-HEP-1 cells). See Table 1 for the afore mentieond sequences. CAR introduction rates into T cells were determined using CAR-targeting antigens on a BD FACSCanto II flow cytometer (BD Biosciences). The immunophenotype of T cells was measured using an anti-CD4 antibody (clone SK3, cat #344604, BioLegend), an anti-CD8 antibody (clone SK1, cat #344710, BioLegend), an anti-CCR7 antibody (clone G043H7, cat #353204, BioLegend), an anti-CD45RA antibody (clone L48, cat #337167, BD Biosciences), an anti-CD27 antibody (clone 0323, cat #302836, BioLegend), and an anti-CD95 antibody (clone DX2, cat #305612, BioLegend), and CCR7/CD45RA/CD27/CD95 positive cells in a CD4 positive or CD8 positive T cell population were used as stem cell memory T cells, and CCR7/CD45RA positive cells other than these were used as naive T cells.

T cells [2] = assay: Immune phenotype of T cells by flow cytometry (naive and stem cell memory T cells, CAR-T production)
Experimental: as §1

SK-HEP-1 cells = assay: Introduction of CAR gene into SK-HEP-1 cells, flow cytometry; conditions: Example 8, 0.1% DMSO in transduction step, FIG. 8A
Experimental: SK-HEP-1 cell culture medium: MEM, L-Gln (+) (Thermo Fisher Scientific) was prepared by adding 10% FBS (Biosera Co., Ltd.), 1% Non-essential amino acids (Fujifilm Wako Pure Chemical Industries, Ltd.), 1% Penicillin-Streptomycin solution (Fujifilm Wako Pure Chemical Industries, Ltd.), and 1 mM Sodium pyruvate (Fujifilm Wako Pure Chemical Industries, Ltd.). Dimethyl Sulfoxide (DMSO) (Wako Pure Chemical Industries, Ltd) was added to the respective media to obtain the designated levels and used. SK-HEP-1 cells (ATCC) were diluted with SK-HEP-1 cell culture medium so that they were 2.0×10^6 cells/mL or less, seeded under 6.07×10^5 cells/cm^2 on culture plates that had been coated with retronectin (Takara Bio Co., Ltd.) and a retrovirus into which a CAR gene had been introduced, and cultured for 4 days to introduce the CAR gene into SK-HEP-1 cells. CAR-T cells were produced as described above. SK-Hep-1 cell expressing CAR were produced as discussed above. 0.1% DMSO was added in the transduction_step during its production. After production, the rate of introduction of the CAR-gene was measured by flow cytometry.

NK92 cells = assay: Introduction of mCherry gene into NK92 cells, flow cytometry
Experimental: NK92 cell culture medium: RPMI, L-Gln (+) (Thermo Fisher Scientific) was prepared by adding 20% FBS (Biosera Co., Ltd.). Dimethyl Sulfoxide (DMSO) (Wako Pure Chemical Industries, Ltd) was added to the respective media to obtain the designated levels and used. NK92 cells (ATCC) were diluted with NK92 cell culture medium so that they were 2.0×10^6 cells/mL or less, seeded under 6.07×10^5 cells/cm^2 on culture plates with or without DMSO for 2 days. After that, NK92 cells were cultured on retronectin (Takara Bio Co., Ltd.) and a retrovirus into which a mCherry gene had been introduced, and cultured for 2 days to introduce the mCherry gene into NK92 cells. mCherry positive NK92 cells were produced as described above. DMSO from 0.01% to 0.1% was added in the pre-cultre step before transduction during its production. After production, the rate of introduction of the mCherry-gene was measured by flow cytometry.

[3] = Example 1, armored, activation step, 0.0037%, 0.011%, 0.033%, 0.1% DMSO vs no DMSO
[4] = Example 1, armored, activation step, 0.011%, 0.033%, 0.1% DMSO vs no DMSO
[5] = Example 3, armored, transduction step, 0.011%, 0.033%, 0.1%, 0.3% DMSO vs no DMSO
[6] = Example 6, unarmored, ex vivo expansion step, 0.3% DMSO vs no DMSO
[7] = Example 7, unarmored, ex vivo expansion step, 0.6-2.7% DMSO vs no DMSO

## C[S+](C)[O-] [DMSO, dimethyl sulfoxide]
T cells [1]; Example 1, CAR-T expressing IL-7 and CCL19 (armored), 0.033%, 0.1% DMSO in activation step (heading, FIG. 1; text says transduction step), vs no DMSO group
  CAR-positive rate: significantly increased
T cells [1]; Example 2, CAR-T (unarmored), 0.033%, 0.1%, 0.3% DMSO in activation step (heading, FIG. 2; text says transduction step), vs no DMSO group
  CAR-positive rate: significantly increased
T cells [1]; Example 3, armored (IL-7, CCL19), gene transduction step, 0.033%, 0.1% DMSO vs no DMSO group
  CAR-positive rate: significantly increased
T cells [1]; Example 4, unarmored, gene transduction step, 0.033% DMSO vs no DMSO group
  CAR-positive rate: increased
T cells [1]; Example 8, 0.1% DMSO in transduction step, FIG. 8B
  CAR transduction efficiency (CAR-T): significantly improves
T cells [2]; [3]
  CD8 positive naive T cells: significantly increased
  CD8 positive stem cell memory T cells: significantly increased
T cells [2]; [4]
  CD4 positive naive T cells: significantly increased
  CD4 positive stem cell memory T cells: significantly increased
T cells [2]; Example 2, unarmored, activation step, 0.0037%, 0.011%, 0.033%, 0.1%, 0.3% DMSO vs no DMSO
  CD4 positive stem cell memory T cells: significantly increased
T cells [2]; Example 2, unarmored, activation step, 0.1% and 0.3% DMSO vs no DMSO
  CD8 positive stem cell memory T cells: significantly increased
T cells [2]; Example 3, armored, transduction step, 0.0037%, 0.011%, 0.033%, 0.1% DMSO vs no DMSO
  CD8 positive stem cell memory T cells: increased
T cells [2]; Example 3, armored, transduction step, 0.011% and 0.033% DMSO vs no DMSO
  CD8 positive naive T cells: increased
T cells [2]; [5]
  CD4 positive naive T cells: significantly increased
  CD4 positive stem cell memory T cells: significantly increased
T cells [2]; Example 4, unarmored, transduction step, 0.0037%, 0.011%, 0.033%, 0.01% and 0.3% DMSO vs no DMSO
  CD8 positive stem cell memory T cells: increased
T cells [2]; Example 4, unarmored, transduction step, 0.011% and 0.033% DMSO vs no DMSO
  CD4 positive naive T cells: increased
T cells [2]; Example 5, armored, ex vivo expansion step, 0.3% DMSO vs no DMSO
  CD8 positive stem cell memory T cells: significantly increased
T cells [2]; [6]
  CD4 positive naive T cells: increased
  CD4 positive stem cell memory T cells: increased
T cells [2]; [7]
  CD4 positive naive T cells: increased
  CD4 positive stem cell memory T cells: increased
  CD8 positive naive T cells: increased
  CD8 positive stem cell memory T cells: increased
SK-HEP-1 cells
  CAR gene transduction in SK-Hep-1: suppresses
NK92 cells; Example 9, NK92 cells, 0.03% and 0.1% DMSO in pre-culture step 2 days before transduction, FIG. 9B
  mCherry transduction efficiency: significantly improves
NK92 cells; FIG. 9B legend, 0.01%-0.1% DMSO added in preculture step before transduction
  transduction efficiency in NK92 cells (mCherry positive cells): improved

From patent US20250304914A1, “METHODS OF PRODUCING ENGINEERED IMMUNE CELLS” (Takeda Pharmaceutical Company Limited, priority 2022, published 2025)
